In patent publication US8987192B2, “Potent and selective mediators of cholesterol efflux” (The Regents of the University of California, priority 2006, dated 2015):
“Also recorded” adds a separate entry of the source.

Legend:
[1] = test system: Apolipoprotein E knock-out mice; assay: Atherosclerosis in Apolipoprotein E knock-out mice on Western diet, pooled series (Example 19); type: in vivo, mouse
Method: The polypeptide of SEQ ID NO:4 and its Y26 analog have been evaluated with respect to ability to inhibit atherosclerosis in Apolipoprotein E knock-out mice. The mice were given Western diet for 18 weeks and then randomized to receive saline, free polypeptide or polypeptide-phospholipid complex. […] The degree of atherosclerosis was then determined in whole aorta and aortic root/sinus. Three experimental series were performed. […] The results are equal to or better than previously have been obtained with IV infusions of 40 mg/kg Apolipoprotein A-I Milano/phospholipids complex into Apo E knock-out mice (Shah et al., Circ., 97:780-5, 1998).
As noted above, data from three experimental series were pooled. Pooling of data is justified as only minor changes in the procedures were made (21 injections at 30 mg/kg over 42 and 21 days, respectively), and the diet regimens and sources of mice and polypeptide, respectively, were the same. In the first experiment S26 was substituted for Y26.

[2] = test system: Apolipoprotein E deficient (ApoE −/−) mice; assay: In vivo cholesterol efflux and Reverse Cholesterol Transport from injected macrophage foam-cells; design: species or system mouse; conditions: 20 mg/kg IP
Method: Apolipoprotein E deficient (ApoE −/−) mice at 6 months of age were used to evaluate the ability of the polypeptide of SEQ ID NO:4 to stimulate cholesterol efflux and Reverse Cholesterol Transport (RCT) in vivo. [^3H]cholesterol-labeled macrophage foam-cells (i.e., loaded with acetylated LDL) were injected into the intraperitoneal (IP) cavity of Apo E −/− mice in the presence and absence of the polypeptide of SEQ ID NO:4 (20 mg/kg). The polypeptide stimulated cholesterol efflux in vivo, as judged by a pronounced (2-fold) increase in the levels of macrophage derived [^3H]cholesterol appearing in plasma at 8 and 24 hour post-injection, compared to saline vehicle alone (see, FIG. 20). This was accompanied by a greater than 2-fold increase in fecal sterol secretion at 8 and 24 h. In general, the effects of the peptide were relatively long-lived persisting up to 48 h.

[3] = test system: LDLr knockout mice; assay: Atherosclerosis in LDLr knockout mice; type: in vivo, mouse; conditions: 30 mg/kg IP every day for 6 weeks on chow after 26 weeks western-diet
Method: Beginning at 6 weeks of age, LDLr knockout mice were fed a high-fat western-diet for 26 weeks. After the dietary challenge, mice were switched to standard chow for 6 weeks. During the 6 weeks on chow diet, mice were injected IP every day with either the polypeptide of SEQ ID NO:4 or a polypeptide of SEQ ID NO:4:POPC complexes at a dose of 30 mg/kg. Control mice received IP injections with PBS vehicle alone. The presence of plaque lesions in the whole aorta was then evaluated.

[4] = 30 mg/kg IP, 6 weeks of treatment

With “EVRSKLEEWFAAFREFAEEFLARLKS (ATI-5261 amphipathic alpha-helix polypeptide core sequence selectively binds HDL, high-affinity ligand for ATP-binding cassette transporter A1 (ABCA1), ABCA1-lipid cholesterol efflux, ABCA1-stablization, anti-oxidant and anti- inflammatory activity) [SEQ ID NO:4]” the “lipid-content of aortic sinus plaque” value [1, 4] was “decreased the lipid-content of aortic sinus plaque”, the “plaque lesion area over the whole aorta” value [1, 4] was “reduced plaque lesion area over the whole aorta” and the “antiatherosclerotic effect (whole aorta and aortic root/sinus)” value ([1]; 30 mg/kg IP, 21 injections, pooled data of three series) was “significant antiatherosclerotic effects”. The “p versus control, FIG. 19A percent of lipid in plaque in whole aorta” value ([1]; pooled data) was less than 0.0040, the persistence of effects [2] was “up to 48 h” and the “increase in fecal sterol secretion” value ([2]; 8 and 24 h) was “greater than 2 fold”. For the same sequence, the “increase in macrophage derived [3H]cholesterol in plasma” value ([2]; 8 and 24 hour post-injection, vs saline) was 2 fold and the “plaque lesions in the whole aorta” value [3] was “reduced plaque lesion area over the whole aorta; also recorded: the amount of plaque was reduced”.
